Experiments:
[1] = system: thrombus formation in the arteria testicularis; experiment: Thrombus formation inhibitory action (FeCl3-induced thrombus, Test Example 1); assay type: in vivo; details: male ICR mice; for large thrombus formation time: control about 14 minutes
Method: Male ICR mice (ten weeks old) were used. Rhodamine 6G (platelet fluorescence-labeling agent) was administered to the tail vein under anesthesia. With the abdomen open, the arteria testicularis was subjected to FeCl3 treatment to induce thrombus formation. Thrombus formation was observed by a real time color three-dimensional observation device, and the thrombus formation time was measured. Suplatast tosilate (IPD), the compound of the present invention, was dissolved in water and orally administered in a single dose (100 mg/kg) 30 minutes before the FeCl3 treatment or for 7 consecutive days (100 mg/kg, 30 mg/kg, 10 mg/kg) before the FeCl3 treatment. In addition, as a control drug, tirofiban (0.3 μmol/kg) was intravenously administered.

[2] = Amount of bleeding after tail amputation (side effect, Test Example 2); assay type: in vivo, mice
Method: Male ICR mice (ten weeks old) were used. The last 2 mm of the tail was amputated with a scalpel under pentobarbital anesthesia, and the tail 2 cm from the tip was immediately immersed in 10 mL of physiological saline at 37° C. Twenty minutes later, the tail was removed from the physiological saline, and 1 mL of Triton X-100 (25% in water) was added. The absorbance at 546 nm was measured, and the amount of bleeding was determined from a calibration curve. Suplatast tosilate (IPD, 100 mg/kg), the compound of the present invention, and a control drug, warfarin (10 mg/kg) were dissolved in distilled water and orally administered in a single dose one hour before amputating the tail, or orally administered for 7 consecutive days before amputating the tail. Distilled water was administered to the control.

[3] = system: thrombus formation in the arteria testicularis; experiment: Thrombus formation inhibition, combined use with cilostazol (FeCl3-induced thrombus, Test Example 3); assay type: in vivo; details: male ICR mice, control 12±3 minutes, P<0.05 vs. cont.
Method: Male ICR mice (ten weeks old) were used. Rhodamine 6G (platelet fluorescence-labeling agent) was administered to the tail vein under anesthesia. With the abdomen open, the arteria testicularis was subjected to FeCl3 treatment to induce thrombus formation. Thrombus formation was observed by a real time color three-dimensional observation device, and thrombus formation time was measured. Suplatast tosilate (IPD) (10 mg/kg) was dissolved in water and orally administered for 7 days before amputating the tail to the group that was given IPD alone. Cilostazol (10 mg/kg, 30 mg/kg, 100 mg/kg), a platelet aggregation inhibitor, was dissolved in water and orally administered in a single dose one hour before amputating the tail to the group that was given cilostazol alone. To the combination group of IPD and cilostazol, IPD (10 mg/kg) was orally administered for 7 days, and cilostazol (10 mg/kg) was orally administered in a single dose one hour before amputating the tail on the 7th day of the IPD administration.

Q: Which results are given for CCOCC(O)COc1ccc(NC(=O)CC[S+](C)C)cc1.Cc1ccc(S(=O)(=O)[O-])cc1 (racemic) [IPD, (±)-[2-[4-(3-ethoxy-2-hydroxypropoxy)phenylcarbamoyl]ethyl]dimethylsulfonium p-toluenesulfonate]?
A: large thrombus formation time ([1]; 100 mg/kg orally, single dose 30 minutes before FeCl3 treatment): 45 min; large thrombus formation inhibitory action ([1]; oral administration for 7 consecutive days (100, 30, 10 mg/kg) vs single dose): clearly enhanced; amount of bleeding ([2]; mouse, in vivo, po, 100 mg/kg): did not have a significant effect on the amount of bleeding; thrombus formation time ([3]; IPD alone 10 mg/kg orally for 7 days): 36 ± 11 min

Q: With O=C1CCc2cc(OCCCCc3nnnn3C3CCCCC3)ccc2N1 [cilostazol] as the compound, how does the thrombus formation time ([3]; cilostazol alone, oral single dose (10, 30, 100 mg/kg tested; dose of this value not stated)) read?
A: 25 ± 5 min

Q: Which “large thrombus formation time” value ([1]; 0.3 μmol/kg intravenously, after FeCl3 stimulation) does the source give for CCCCS(=O)(=O)N[C@@H](Cc1ccc(OCCCCC2CCNCC2)cc1)C(=O)O [tirofiban] here?
A: 60 min

Q: For CC(=O)CC(c1ccccc1)c1c(O)c2ccccc2oc1=O (centres unmarked) [warfarin], which amount of bleeding ([2]; male ICR mice, 10 mg/kg orally for 7 consecutive days before amputating the tail) is on record?
A: notable effect of increasing the amount of bleeding

Q: What about the amount of bleeding ([2]; male ICR mice, 10 mg/kg orally, single dose one hour before amputating the tail) of the same compound?
A: notable effect of increasing the amount of bleeding
